Where “and” joins values, the source holds several entries; their conditions need not be identical. Equal values may be shown once.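 Five compound concentrations were applied to cells in 96-well plates for 48 hours; endpoints were derived by simple linear interpolation of the resulting dose-response curve. The concentration for 50% growth inhibition is given as GI50. Definition used: TGI = concentration required for complete inhibition of growth.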
Experiments:
Experiment in all cases: NCI anticancer screen, dose series, 48 h
[1] = system: A549 NSCLC
[2] = system: CCRF-CEM leukemia
[3] = system: HCC-2998 colon
[4] = system: HL-60(TB) leukemia
[5] = system: HOP-92 NSCLC
[6] = system: IGROV1 ovarian
[7] = system: SK-MEL-2 melanoma
[8] = system: SK-MEL-5 melanoma
[9] = system: UACC-257 melanoma
[10] = system: UO-31 renal

Compound | GI50 [1] | TGI [1] | GI50 [2] | TGI [2] | GI50 [3] | TGI [3] | GI50 [4] | TGI [4] | GI50 [5] | TGI [5] | GI50 [6] | TGI [6] | GI50 [7] | TGI [7] | GI50 [8] | TGI [8] | GI50 [9] | TGI [9] | GI50 [10] | TGI [10]
COc1cc(NC(C)CCCNC2CN3CCC2CC3)c2ncccc2c1 (stereo not given) | 12.9 µM | 27.5 µM | 19 µM | > 100 µM | 11.1 µM | 24.8 µM | 2.86 µM | 11 µM | 4.37 µM | 21.8 µM | 11.5 µM | 31.2 µM | 23.3 µM | 52.4 µM | 2.23 µM | 5.6 µM | 2.39 µM | 5.74 µM | 13.7 µM | 32.6 µM
OC(c1ccccc1)(c1ccccc1)c1ccncc1 | – | > 100 µM | – | > 100 µM | – | > 100 µM | – | > 100 µM | – | > 100 µM | – | > 100 µM | – | > 100 µM | – | > 100 µM | – | > 100 µM | – | > 100 µM
COc1ccc(-c2c[nH]c(C(=O)O)c2-c2cc(OC)c(OC)c(OC)c2)cc1 | 6.61 µM | > 100 µM | 4.08 µM | > 100 µM | 7.53 µM | > 100 µM | 3.06 µM | 9.59 µM | 5.68 µM | > 100 µM | 5.5 µM | > 100 µM | 5.45 µM | > 100 µM | 3.5 µM | > 100 µM | > 100 µM | > 100 µM | 5.02 µM | > 100 µM
Cc1cc(=O)n(-c2ccccc2C)c(C)n1 | – | > 100 µM | – | > 100 µM | – | > 100 µM | – | > 100 µM | – | > 100 µM | – | > 100 µM | – | > 100 µM | – | > 100 µM | – | > 100 µM | – | > 100 µM
COc1ccc(/C(COc2ccc3c(=O)cc(-c4ccccc4)oc3c2)=N\O)cc1 | 20.1 µM | > 50 µM | > 50 µM | > 50 µM | 16.5 µM | > 50 µM | > 14 µM | > 50 µM | > 27.7 µM | > 50 µM | 16.6 µM | > 47.6 µM | 13.3 µM | > 39.1 µM | 9.61 µM | > 29.4 µM | 19.6 µM | > 35.5 µM | 13.5 µM | > 50 µM
COc1cc(/C=C/C(=O)c2cccc(Nc3nc(Nc4ccccc4)nc(Nc4ccccc4)n3)c2)cc(OC)c1OC | 36.6 µM | > 100 µM | 0.904 µM | 5.67 µM | 5.5 µM | 53.1 µM | 1.33 µM | 4.1 µM | 1.36 µM | > 31.2 µM | 3.22 µM | > 100 µM | 7.78 µM | > 65.4 µM | 2.7 µM | 23.8 µM | 25 µM | > 100 µM | 5.15 µM | > 100 µM
Clc1ccc(C2SCc3nc4ccccc4n32)c(Cl)c1 (stereo not given) | – | 28.8 µM | – | 40.8 µM | – | 28.8 µM | – | 28.3 µM | – | 11 µM | – | 31.5 µM | – | 33.8 µM | – | 20.4 µM | – | 22.2 µM | – | 24.9 µM
CCc1cc(C(=O)OC)cn1C(=N)c1ccc(Cl)cc1 | – | > 100 µM | – | > 100 µM | – | > 100 µM | – | > 100 µM | – | > 100 µM | – | > 100 µM | – | > 100 µM | – | > 100 µM | – | > 100 µM | – | > 100 µM
COc1cc(C[C@H]2c3cc(OC)c(OC)cc3CCN2C)c(Oc2cc3c(cc2OC)-c2c(OC)c(OC)cc4c2[C@H](C3)N(C)CC4)cc1OC | 15.6 µM | 28.2 µM and 29.4 µM | 6.59 µM | 27.6 µM and 22.6 µM | 4.9 µM | 15.1 µM and 14.4 µM | 5.71 µM | 13.9 µM and 19.4 µM | 13.3 µM | 8.94 µM and 28.8 µM | 14.2 µM | 32.6 µM and 28.3 µM | 14.9 µM | 18.5 µM and 28.8 µM | 1.97 µM | 11.1 µM and 3.58 µM | 1.8 µM | 8.76 µM and 3.37 µM | 9.73 µM | 16.8 µM and 22.6 µM
O=C(O)C(SC(=S)c1ccc(C(=S)SC(C(=O)O)c2ccccc2)cc1)c1ccccc1 (stereo not given) | – | > 100 µM | – | > 100 µM | – | > 100 µM | – | > 100 µM | – | > 100 µM | – | > 100 µM | – | > 100 µM | – | > 100 µM | – | > 100 µM | – | > 100 µM
COc1c(C)c2c(c(O)c1C/C=C(\C)CCC(=O)O)C(=O)OC2 | 0.239 µM | > 100 µM | 0.0889 µM | > 100 µM | 0.404 µM | > 100 µM | 0.639 µM | > 100 µM | 0.959 µM | > 100 µM | 0.253 µM | > 100 µM | 2 µM | > 100 µM | 0.411 µM | > 100 µM | 0.434 µM | > 100 µM | 0.472 µM | > 100 µM
C=C1C(=O)O[C@H]2[C@H]1CC/C(COC(=O)NCc1cn(C)c3ccccc13)=C\CC[C@@]1(C)O[C@@H]21 | 2.17 µM | 7.14 µM | 0.335 µM | 2.26 µM | 2.3 µM | 5.33 µM | 0.49 µM | 2.86 µM | 1.46 µM | 3.05 µM | 1.58 µM | 3.31 µM | 2.55 µM | 7.79 µM | 1.41 µM | 2.74 µM | 1.56 µM | 4.03 µM | 1.34 µM | 2.62 µM
CCOc1ccccc1N1C(=O)C(=O)C(c2nc3ccccc3o2)C(=O)C1=O | – | > 100 µM | – | > 100 µM | – | > 100 µM | – | > 100 µM | – | > 100 µM | – | > 100 µM | – | > 100 µM | – | > 100 µM | – | > 100 µM | – | > 100 µM
COc1ccc(-c2nc(-c3nc4ccc(OC)cc4[nH]3)c3ccccn23)cc1 | 3.17 µM | 46.7 µM | 2.53 µM | 26.8 µM | 3.96 µM | 46.4 µM | 2.55 µM | 7.75 µM | 2.31 µM | 8.4 µM | 2.7 µM | 6.98 µM | 4.07 µM | 16.5 µM | 1.6 µM | 4.41 µM | 4.39 µM | 26.1 µM | 2.47 µM | 7.93 µM
CCN(CC)CCCC(C)Nc1ccnc2cc(Oc3ccccc3)ccc12 (stereo not given) | 4.13 µM and 14.2 µM | 14.8 µM and 47.6 µM | 2.64 µM and 4.69 µM | 12.8 µM and 55.6 µM | 2.34 µM and 6.92 µM | 7.94 µM and 36.9 µM | 3.24 µM and 13.1 µM | 9.38 µM and 41.6 µM | 5.62 µM and 3.78 µM | 20.5 µM and 27 µM | 3.55 µM and 14.1 µM | 16.9 µM and > 100 µM | 3.05 µM and 2.36 µM | 8.96 µM and 5.68 µM | 1.69 µM and 1.8 µM | 3.22 µM and 3.37 µM | 1.95 µM and 2.09 µM | 3.59 µM and 3.94 µM | 1.3 µM and 11.3 µM | 3.09 µM and 27.7 µM
